Assay results as given in patent US8735433B1, “Aryl oxadiazole derivatives as sphingosine 1-phosphate (S1P) receptor modulators” (Allergan, Inc., priority 2012, dated 2014).
pEC50: −log10 of the molar value.

Molecular target: T1, human S1P1 receptor (Homo sapiens, UniProt P21453)
T1 construct: expressed in transfected cells; membrane preparation
Test: GTP γ35S binding assay for S1P1 activity
Assay type: biochemical
Conditions: membranes of cells stably expressing the S1P1 receptor, test compounds 0.08 to 5,000 nM, 30 min at 25° C.
Protocol: Compounds were synthesized and tested for S1P1 activity using the GTP γ^35S binding assay. These compounds may be assessed for their ability to activate or block activation of the human S1P1 receptor in cells stably expressing the S1P1 receptor.
GTP γ^35S binding was measured in the medium containing (mM) HEPES 25, pH 7.4, MgCl2 10, NaCl 100, dithitothreitol 0.5, digitonin 0.003%, 0.2 nM GTP γ^35S, and 5 μg membrane protein in a volume of 150 μl. Test compounds were included in the concentration range from 0.08 to 5,000 nM unless indicated otherwise. Membranes were incubated with 100 μM 5′-adenylylimmidodiphosphate for 30 min, and subsequently with 10 μM GDP for 10 min on ice. Drug solutions and membrane were mixed, and then reactions were initiated by adding GTP γ^35S and continued for 30 min at 25° C. Reaction mixtures were filtered over Whatman GF/B filters under vacuum, and washed three times with 3 mL of ice-cold buffer (HEPES 25, pH7.4, MgCl2 10 and NaCl 100). Filters were dried and mixed with scintillant, and counted for ^35S activity using a β-counter. Agonist-induced GTP γ^35S binding was obtained by subtracting that in the absence of agonist. Binding data were analyzed using a non-linear regression method. In case of antagonist assay, the reaction mixture contained 10 nM S1P in the presence of test antagonist at concentrations ranging from 0.08 to 5000 nM.

T1 sequence (P21453 whole entry): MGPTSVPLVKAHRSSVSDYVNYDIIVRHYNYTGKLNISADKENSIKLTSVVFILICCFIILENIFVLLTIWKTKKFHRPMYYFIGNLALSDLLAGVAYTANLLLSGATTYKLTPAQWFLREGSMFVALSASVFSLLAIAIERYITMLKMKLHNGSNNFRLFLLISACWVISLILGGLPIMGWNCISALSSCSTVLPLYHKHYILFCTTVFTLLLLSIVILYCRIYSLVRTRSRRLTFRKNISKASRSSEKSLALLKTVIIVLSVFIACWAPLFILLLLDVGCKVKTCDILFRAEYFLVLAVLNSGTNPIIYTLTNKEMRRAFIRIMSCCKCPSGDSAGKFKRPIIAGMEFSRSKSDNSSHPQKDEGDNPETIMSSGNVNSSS

pEC50	SMILES
5.92	Cc1ccc(CC(c2nc(-c3ccc(CCC(N)(CO)CO)cc3)no2)c2cccs2)cc1C (stereo not drawn)
6.76	Cc1ccc(CC(c2cccc(Cl)c2)c2nc(-c3ccc(CCC(N)(CO)CO)cc3)no2)cc1C (stereo not drawn) [2-amino-2-[2-(4-{5-[1-(3-chlorophenyl)-2-(3,4-dimethylphenyl)ethyl]-1,2,4-oxadiazol-3-yl}phenyl)ethyl]propane-1,3-diol]
7.06	Cc1ccc(CC(c2cc(F)cc(F)c2)c2nc(-c3ccc(CCC(N)(CO)CO)cc3)no2)cc1C (stereo not drawn) [Compound 1, 2-amino-2-[2-(4-{5-[1-(3,5-difluorophenyl)-2-(3,4-dimethylphenyl)ethyl]-1,2,4-oxadiazol-3-yl}phenyl)ethyl]propane-1,3-diol]
